# Assay results taken from patent US10570179B2, “Substituted urea depsipeptide analogs as activators of the CLPP endopeptidase” (priority 2016, dated 2020).
# Read-outs that look alike come from different tables or passages of the source. Numbered stars: 1 amine (or outer) side, 2 acyl side, 3 side chain; on linkers, the order of the positions; unused ones are H or OH. Bridge positions count the residues as written; N and C are the ends. Square brackets hold non-standard residues; d marks the D form. Peptide text beside a SMILES is read from it. * marks the point of attachment. Piperazine(2S-CO,4-Me) = CN1CCN[C@H](C(=O)O)C1; X6 = O=C([C@@H]1CS(=O)(=O)CCN1[*:1])[*:2]; Phe(3-Cl) = N[C@@H](Cc1cccc(Cl)c1)C(=O)O; Morpholine(3S-CO) = O=C(O)[C@@H]1COCCN1; Phe(3-Me) = Cc1cccc(C[C@H](N)C(=O)O)c1; NH(4-Cl-2-F-phenyl) = Fc1cc(Cl)ccc1N*; Pro(4R-Me) = C[C@H]1CN[C@H](C(=O)O)C1; Hyp = O=C(O)[C@@H]1C[C@@H](O)CN1; NH(4-Et-phenyl) = CCc1ccc(N*)cc1; NH(4-Me-phenyl) = Cc1ccc(N*)cc1; aThr = C[C@H](O)[C@H](N)C(=O)O; Pip = O=C(O)[C@@H]1CCCCN1; X3 = c1cc2c(cc1N*)OCCO2; CO = O=C([*:1])[*:2]
# Experiments:
# [1] = Microsomal metabolic stability; format: in vitro ADME, mouse
# Procedure: Compounds were initially prepared by dissolving them into DMSO at a final concentration of 10 mM. NADPH regenerating solutions A and B and mouse liver microsomes (CD-1) were obtained from BD Gentest (Woburn, Mass.). Ninety-six well deep well plates were obtained from MidWest Scientific Inc (Valley Park, Mo.).
# Sample preparation for microsomal stability was modified from methods of Di, L., et al., Int J Pharm. 2005 Jun. 13; 297(1-2):110-9. A set of incubation times of 0, 15, 30, 60, 120, and 240 minutes were used. Mouse liver microsomal solutions were prepared by adding 58 μL of concentrated human or mouse liver microsomes (20 mg/mL protein concentration) to 1.756 mL of 0.1 M potassium phosphate buffer (pH 7.4) and 5 μL of 0.5 M EDTA to make a 0.6381 mg/mL (protein) microsomal solution. NADPH regenerating agent contained 113 μL of NADPH A, 23 μL of NADPH B, and 315 μL of 0.1 M potassium phosphate buffer (pH 7.4). The diluted test compound solutions (2 μL) were each added directly to a 1.79 mL of liver microsomal solution. This solution was mixed and 90 μL was transferred to 6 time points plates (each in triplicate wells). For the time 0 plate, 225 μL of cold acetonitrile with internal standard ([…] warfarin) was added to each well, followed by addition of NADPH regenerating agent (22.5 μL) and no incubation. For other five time points' plate, NADPH regenerating agent (22.5 μL) was added to each well to initiate the reaction. The plates were incubated at 37° C. for the required time, followed by quenching of the reaction by adding 225 μL of cold acetonitrile with internal standard (4 μg/ml warfarin). All of the plates were sealed and mixed well at 600 rpm for 10 minutes followed by centrifugation at 4000 rpm for 20 minutes. The supernatants (120 μL) were transferred to analytical plates for analysis by LCMS. LCMS conditions were described in the materials and instrumentation section above. The metabolic stability is evaluated via the half-life from least-squares fit of the multiple time points based on first-order kinetics.
# MRSA NRS70 = test: Minimal inhibitory concentration, microbroth dilution; format: cell-based; settings: Staphylococcus aureus
# Method in brief: (§1)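 Susceptibility testing used the CLSI dilution standard, with bacteria at ~10^5 cfu/mL exposed to a two-fold compound series beginning at 200 μM final. The endpoint is the lowest concentration showing no growth after overnight incubation (37 °C, aerobic).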
# S. aureus USA 300 = test: as above; format: cell-based; settings: Staphylococcus aureus
# Method in brief: as §1
# E. faecails = test: as above; format: cell-based; settings: Enterococcus faecalis
# Method in brief: as §1
# [2] = Plasma protein binding, rapid equilibrium dialysis; format: in vitro ADME, human; settings: 10 μM
# Procedure: This assay determines plasma protein binding of a drug/compound and free drug concentration in plasma using rapid equilibrium dialysis, which allow the aqueous component of plasma containing the free drug/compound through a dialysis membrane (MWCO˜8,000).
# Solutions were prepared at 10 mM in DMSO. Dulbecco's phosphate buffered saline (DPBS; pH 7.4) was obtained from Invitrogen (Carlsbad, Calif.). Single-Use RED (rapid equilibrium dialysis) device was obtained from Thermo scientific (Rockford, Ill.). Human plasma was obtained from Innovative Research INC (Novi, Michigan, Ill).
# Sample preparation for plasma protein binding was modified from Waters' method. (Waters et al. (2008) J. Pharm. Sci. 97(10): 4586-95). The Teflon base plate with the RED inserts (MWCO 8 K) were allowed to use without any pre-condition the membrane inserts. Human plasma was thawed and centrifuged at 1000 rpm for 2 min to remove any particulates. Each compound was prepared at 10 μM in human plasma. This was done by adding 1 μL, of drug solution (10 mM in DMSO) to 1000 μL, of human plasma (0.1% DMSO). Spiked plasma solutions (300 μL) were placed into the sample chamber (indicated by the red ring) and 500 μL, of DPBS into the adjacent chamber. The plate was sealed and incubated at 37° C. on an orbital shaker (100 rpm) for 4 hours. After incubation, the seal was removed from the RED plate and the volume of the insert confirmed—little to no volume change occurred. Aliquots (50 μL) were removed from each side of the insert and dispensed into a 96-well deep plate. An equal volume of blank plasma or DPBS was added to the required wells to create analytically identical sample matrices (matrix matching). To each sample 200 μL, of ACN containing 4 μg/mL warfarin IS was added. All of the plates were sealed and mixed well at 600 rpm for 10 min and were centrifuged at 4000 rpm for 20 min. The supernatants (120 μL) were transferred to analytical plates for analysis by LCMS. Conditions for Waters ACQUITY-UPLC-MS-UV system were described separately. The test compound concentrations were quantified in both buffer and plasma chambers via peak areas relative to the internal standard. The percentage of the test compound bound to plasma was calculated on following equations: % Free=(Concentration buffer chamber/concentration plasma chamber)×100% and % Bound=100%-% Free.
# [3] = MIC, read-out: Minimal Inhibitory Concentrations (μM) MRSA NRS70
# [4] = USA300, MIC, read-out: Minimal Inhibitory Concentrations (μM) S. aureus USA 300
# [5] = MIC, read-out: Minimal Inhibitory Concentrations (μM) E. faecails
# [6] = microsomal metabolic stability half-life, mouse liver microsomes
# [7] = plasma binding, % Bound, human plasma
SMILES,"Mouse ([1]; CD-1, mouse, pH 7.4)",MIC (MRSA NRS70; [3]),MIC (S. aureus USA 300; [4]),MIC (E. faecails; [5]),"Human ([2]; human, 4 h, pH 7.4)","Mouse [1, 6]","MIC (MRSA NRS70; read-out: Minimal Inhibitory Concentrations (μM) MRSA NRS70, MIC)","MIC (S. aureus USA 300; USA300, read-out: Minimal Inhibitory Concentrations (μM) S. aureus USA 300, MIC)","MIC (E. faecails; read-out: Minimal Inhibitory Concentrations (μM) E. faecails, MIC)","Human [2, 7]"
"C[C@@H]1C[C@H]2C(=O)O[C@@H](C)[C@H](NC(=O)[C@H](Cc3cccc(Cl)c3)NC(=O)Nc3ccc(Cl)cc3F)C(=O)N3CCC[C@H]3C(=O)N3CCN(C)C[C@H]3C(=O)N[C@@H](C)C(=O)N2C1 [Compound 33] ({NH(4-Cl-2-F-phenyl)-CO}-[Phe(3-Cl)][aThr]P[Piperazine(2S-CO,4-Me)]A[Pro(4R-Me)]; ester 2-C)",0.80 ± .805 h,0.039 µM,0.078 µM,0.078 µM,99.1 ± 9.1%,–,–,–,–,–
"Cc1ccc(NC(=O)N[C@@H](Cc2cccc(C)c2)C(=O)N[C@@H]2C(=O)N3C[C@H](O)C[C@H]3C(=O)N3CCN(C)C[C@H]3C(=O)N[C@@H](C)C(=O)N3C[C@H](C)C[C@H]3C(=O)O[C@H]2C)cc1 [Compound 30, (S)—N-((6AS,8R,12S,13S,15AS,17R,21S,23AS)-8-HYDROXY-2,13,17,21-TETRAMETHYL-6,11,15,20,23-PENTAOXOOCTADECAHYDRO-2H,6H,11H,15H-PYRAZINO[2,1-I]DIPYRROLO[2,1-C:2′,1′-L][1]OXA[4,7,10,13]TETRAAZACYCLOHEXADECIN-12-YL)-3-(M-TOLYL)-2-(3-(P-TOLYL)UREIDO)PROPANAMIDE] ({NH(4-Me-phenyl)-CO}-[Phe(3-Me)][aThr][Hyp][Piperazine(2S-CO,4-Me)]A[Pro(4R-Me)]; ester 2-C)",–,–,–,–,–,6.21 ± .215 h,2.5 µM,2.5 µM,0.313 µM,94.8 ± 4.8%
"Cc1cccc(C[C@H](NC(=O)Nc2ccc(Cl)cc2F)C(=O)N[C@@H]2C(=O)N3CCC[C@H]3C(=O)N3CCS(=O)(=O)C[C@H]3C(=O)N[C@@H](C)C(=O)N3C[C@H](C)C[C@H]3C(=O)O[C@H]2C)c1 [Compound 40, (S)-2-(3-(4-CHLORO-2-FLUOROPHENYL)UREIDO)-3-(M-TOLYL)-N-((6AS,12S,13S,15AS,17R,21S,23AR)-13,17,21-TRIMETHYL-2,2-DIOXIDO-6,11,15,20,23-PENTAOXOOCTADECAHYDRO-6H,11H,15H-DIPYRROLO[2,1-C:2′,1′-L][1,4]THIAZINO[3,4-I][1]OXA[4,7,10,13]TETRAAZACYCLOHEXADECIN-12-YL)PROPANAMIDE] ({NH(4-Cl-2-F-phenyl)-CO}-[Phe(3-Me)][aThr]P[X6]A[Pro(4R-Me)]; ester 2-C)",6.54 ± .543 h,0.625 µM,1.25 µM,0.625 µM,98.5 ± 8.5%,–,–,–,–,–
"Cc1cccc(C[C@H](NC(=O)Nc2ccc3c(c2)OCCO3)C(=O)N[C@@H]2C(=O)N3C[C@H](O)C[C@H]3C(=O)N3CCCC[C@H]3C(=O)N[C@@H](C)C(=O)N3C[C@H](C)C[C@H]3C(=O)O[C@H]2C)c1 [Compound 28, (S)-2-(3-(2,3-DIHYDROBENZO[B][1,4]DIOXIN-6-YL)UREIDO)-N-((2R,6S,8AS,14AS,16R,20S,21S,23AS)-16-HYDROXY-2,6,21-TRIMETHYL-5,8,14,19,23-PENTAOXOOCTADECAHYDRO-1H,5H,14H,19H-PYRIDO[2,1-I]DIPYRROLO[2,1-C:2′,1′-L][1]OXA[4,7,10,13]TETRAAZACYCLOHEXADECIN-20-YL)-3-(M-TOLYL)PROPANAMIDE] ({X3-CO}-[Phe(3-Me)][aThr][Hyp][Pip]A[Pro(4R-Me)]; ester 2-C)",0.79 ± .795 h,2.5 µM,2.5 µM,0.625 µM,92.9 ± 2.9%,–,–,–,–,–
"CCc1ccc(NC(=O)N[C@@H](Cc2cccc(C)c2)C(=O)N[C@@H]2C(=O)N3C[C@H](O)C[C@H]3C(=O)N3CCOC[C@H]3C(=O)N[C@@H](C)C(=O)N3C[C@H](C)C[C@H]3C(=O)O[C@H]2C)cc1 [Compound 24, (S)-2-(3-(4-ETHYLPHENYL)UREIDO)-N-((6AS,8R,12S,13S,15AS,17R,21S,23AS)-8-HYDROXY-13,17,21-TRIMETHYL-6,11,15,20,23-PENTAOXOOCTADECAHYDRO-6H,11H,15H-[1,4]OXAZINO[3,4-I]DIPYRROLO[2,1-C:2′,1′-L][1]OXA[4,7,10,13]TETRAAZACYCLOHEXADECIN-12-YL)-3-(M-TOLYL)PROPANAMIDE] ({NH(4-Et-phenyl)-CO}-[Phe(3-Me)][aThr][Hyp][Morpholine(3S-CO)]A[Pro(4R-Me)]; ester 2-C)",1.03 ± 0.05 h,0.156 µM,0.313 µM,0.156 µM,97.7 ± 0.2%,–,–,–,–,–
"CCc1ccc(NC(=O)N[C@@H](Cc2cccc(C)c2)C(=O)N[C@@H]2C(=O)N3C[C@H](O)C[C@H]3C(=O)N3CCCC[C@H]3C(=O)N[C@@H](C)C(=O)N3C[C@H](C)C[C@H]3C(=O)O[C@H]2C)cc1 [Compound 25, (S)-2-(3-(4-ETHYLPHENYL)UREIDO)-N-((2R,6S,8AS,14AS,16R,20S,21S,23AS)-16-HYDROXY-2,6,21-TRIMETHYL-5,8,14,19,23-PENTAOXOOCTADECAHYDRO-1H,5H,14H,19H-PYRIDO[2,1-I]DIPYRROLO[2,1-C:2′,1′-L][1]OXA[4,7,10,13]TETRAAZACYCLOHEXADECIN-20-YL)-3-(M-TOLYL)PROPANAMIDE] ({NH(4-Et-phenyl)-CO}-[Phe(3-Me)][aThr][Hyp][Pip]A[Pro(4R-Me)]; ester 2-C)",2.35 ± 0.27 h,0.156 µM,0.313 µM,0.156 µM,99.2 ± 0.3%,–,–,–,–,–
"Cc1ccc(NC(=O)N[C@@H](Cc2cccc(C)c2)C(=O)N[C@H]2COC(=O)[C@@H]3CCCN3C(=O)[C@H](C)NC(=O)[C@@H]3CCCCN3C(=O)[C@@H]3C[C@@H](O)CN3C2=O)cc1 [Compound 49, (S)—N-((6S,8AS,14AS,16R,20S,23AS)-16-HYDROXY-6-METHYL-5,8,14,19,23-PENTAOXOOCTADECAHYDRO-1H,5H,14H,19H-PYRIDO[2,1-I]DIPYRROLO[2,1-C:2′,1′-L][1]OXA[4,7,10,13]TETRAAZACYCLOHEXADECIN-20-YL)-3-(M-TOLYL)-2-(3-(P-TOLYL)UREIDO)PROPANAMIDE]",–,–,–,–,–,4.37 ± .373 h,–,–,–,98.7 ± 8.7%
